Test results reported in US8841268B2, “Method and kit for detection of cancer, and therapeutic agent for cancer” (Sapporo Medical University, priority 2008, dated 2014).
Read-outs that look alike come from different tables or passages of the source.

Columns and labels:
Assay type in all cases: cell-based, human
p53 [1] = conditions: p53-knockout HCT116 cell (p53KO); DAC 2 μM, 72 hours; ADR 0.5 μg/ml, 24 hours; FIG. 5C
p53-knockout HCT116 cell = assay: miR-34b/c expression in p53-knockout HCT116 cell treated with DAC and/or ADR; conditions: HCT116 cell in which p53 gene has been knocked out; DAC 2 μM, 72 hours; ADR 0.5 μg/ml, 24 hours; FIG. 5B
p53 [2] = conditions: HCT116 cell (WT); DAC 2 μM, 72 hours; ADR 0.5 μg/ml, 24 hours; FIG. 5C
p21 [3] = assay: Western-blotting of p21 expression in HCT116 cell (WT); conditions: DAC 2 μM, 72 hours, ADR 0.5 μg/ml, 24 hours, FIG. 5C
Excerpt: The expression of β-actin was confirmed as control, and the expression of p21 gene which is known as a representative target of p53 was similarly confirmed.

p21 [4] = conditions: p53-knockout HCT116 cell (p53KO); DAC 2 μM, 72 hours; ADR 0.5 μg/ml, 24 hours; FIG. 5C
HCT116 cell [5] = assay: miR-34b/c expression in HCT116 cell treated with DAC and/or ADR; conditions: DAC 2 μM, 72 hours, ADR 0.5 μg/ml, 24 hours, FIG. 5A
Excerpt: U6 snRNA was used as an internal control.

MET = assay: Western-blot analysis of MET protein in HCT116 cell; conditions: anti-MET antibody, vs control miRNA / mock, FIG. 13C
Excerpt: (§1) Furthermore, for foregoing genes, changes in protein level were verified by western-blot analysis using an anti-MET antibody (MET), anti-CDK4 antibody (CDK4), anti-SFRS2 antibody (SFRS2), and anti-actin antibody as control (actin), as shown in FIG. 13C. […] The result above also indicates a more marked decrease in protein level than in RNA level.

HCT116 cell [6] = assay: Expression analysis of miRNAs (TaqMan miRNA Assay, real-time PCR) in HCT116 cell; conditions: DAC 2 μM, 72 hours
[7] = test system: CDK4 (cyclin-dependent kinase 4) gene; assay: Real-time RT-PCR (TaqMan Gene Expression Assay) of CDK4 gene in HCT116 cells; conditions: miRNA by electroporation, RNA after 48 hours, vs control miRNA, DAC 2 μM, 72 hours vs mock, FIG. 13B
[8] = test system: 9 colorectal cancer cell lines (CaCO2, Colo320, DLD1, HCT116, HT29, LoVo, RKO, SW48 and SW480); assay: Expression analysis of miR-34b and miR-34c in colorectal cancer cell lines with DAC treatment; conditions: all 9 colorectal cancer cell lines
Excerpt: DKO2 cell was used as a control, and U6 snRNA was used as an internal control.
The expression level of miRNA was converted to the ratio of the expression level of each miRNA to that of U6 snRNA (i.e., the expression level of each miRNA/the expression level of U6 snRNA) and analyzed.

[9] = test system: MET (hepatocyte growth factor receptor) gene; assay: Real-time RT-PCR (TaqMan Gene Expression Assay) of MET gene in HCT116 cells; conditions: miRNA by electroporation, RNA after 48 hours, vs control miRNA, DAC 2 μM, 72 hours vs mock, FIG. 13B
CCNE2 (Cyclin E2) gene = assay: Real-time RT-PCR (TaqMan Gene Expression Assay) of CCNE2 gene in HCT116 cells; conditions: miRNA by electroporation, RNA after 48 hours, vs control miRNA, DAC 2 μM, 72 hours vs mock, FIG. 13B
[10] = test system: SFRS2 (splicing factor, arginine/serine-rich 2) gene; assay: Real-time RT-PCR (TaqMan Gene Expression Assay) of SFRS2 gene in HCT116 cells; conditions: miRNA by electroporation, RNA after 48 hours, vs control miRNA, DAC 2 μM, 72 hours vs mock, FIG. 13B
CDK4 = assay: Western-blot analysis of CDK4 protein in HCT116 cell; conditions: anti-CDK4 antibody, vs control miRNA / mock, FIG. 13C
Excerpt: as §1

HCT116 cell [11] = assay: Microarray analysis of gene expression in HCT116 cell; conditions: miRNA by electroporation, RNA after 48 hours, vs control miRNA, DAC 2 μM, 72 hours vs mock, FIG. 13A
Method: Firstly, in order to search for a gene whose expression is decreased by miR-34b/c expression, control miRNA (control miRNA (Ambion)), miR-34b (miR-34b precursor (Ambion)) and miR-34c (miR-34c precursor (Ambion)) were introduced into a HCT116 cell by electroporation, and after 48 hours RNA was extracted and subjected to microarray analysis.

[12] = test system: 9 colorectal cancer cell lines (CaCO2, Colo320, DLD1, HCT116, HT29, LoVo, RKO, SW48 and SW480); assay: BTG4 expression by RT-PCR in colorectal cancer cell lines treated with DAC; conditions: DAC 2 μM, 72 hours, FIG. 14A
SFRS2 = assay: Western-blot analysis of SFRS2 protein in HCT116 cell; conditions: anti-SFRS2 antibody, vs control miRNA / mock, FIG. 13C
Excerpt: as §1

[13] = test system: (v-myb myeloblastosis viral oncogene homolog) gene; conditions: HCT116 cells, DAC 2 μM, 72 hours vs mock, FIG. 13B
[14] = miRNA by electroporation, RNA after 48 hours, vs control miRNA

## COc1cccc2c1C(=O)c1c(O)c3c(c(O)c1C2=O)C[C@@](O)(C(=O)CO)C[C@@H]3O[C@H]1C[C@H](N)[C@H](O)[C@H](C)O1 [ADR, adriamycin]
p53 [1]
  p53 expression (protein level): neither p53 nor p21 was changed at all
p53-knockout HCT116 cell
  miR-34b/c expression: not at all
p53 [2]
  p53 expression (protein level): induced by ADR treatment
p21 [3]
  expression of p21 gene, a p53 target: also induced in similar pattern to that of p53
p21 [4]
  p21 expression: neither p53 nor p21 was changed at all
HCT116 cell [5]
  miR-34b/c expression: induction of miR-34b/c expression was observed

## Nc1ncn([C@H]2C[C@H](O)[C@@H](CO)O2)c(=O)n1 [DAC, 5-aza-2′-deoxycytidine]
MET
  expression level of MET protein: decreased
HCT116 cell [6]; 157 miRNAs compared, FIG. 2
  expression of miRNAs (expression level of each miRNA/the expression level of U6 snRNA): induced the expression of 37 miRNAs
HCT116 cell [6]; FIG. 3A
  expression levels of miRNA34b and miR-34c: restores their expression
[7]
  mRNA expression level of CDK4 gene: decreased
[8]; FIG. 4A
  expression of miR-34b: induces the expression
[8]; FIG. 4B
  expression of miR-34c: induces the expression
[9]
  mRNA expression level of MET gene: decreased
CCNE2 (Cyclin E2) gene
  mRNA expression level of CCNE2 gene: decreased
[10]
  mRNA expression level of SFRS2 gene: decreased
CDK4
  expression level of CDK4 protein: decreased
HCT116 cell [11]
  gene expression patterns (microarray): also decreased by DAC treatment
HCT116 cell [5]
  miR-34b/c expression: induction of miR-34b/c expression was observed
[12]
  mRNA expression of BTG4 gene: markedly increased (restored)
SFRS2
  expression level of SFRS2 protein: decreased
[13]; […]
  mRNA expression level of MTB gene: decreased

## miR-34b: miR-34b precursor (Ambion); matured type sequence UAGGCAGUGUCAUUAGCUGAUUG (SEQ ID NO: 2) (precursor form, further chemistry not given here)
[7]
  mRNA expression level of CDK4 gene: decreased
[9]
  mRNA expression level of MET gene: decreased
CCNE2 (Cyclin E2) gene
  mRNA expression level of CCNE2 gene: decreased
[10]
  mRNA expression level of SFRS2 gene: decreased
HCT116 cell [11]
  gene expression patterns (microarray): a group of genes whose expression was decreased
[13]; [14]
  mRNA expression level of MTB gene: decreased

## miR-34c: miR-34c precursor (Ambion); matured type sequence AGGCAGUGUAGUUAGCUGAUUGC (SEQ ID NO: 4) (precursor form, further chemistry not given here)
[7]
  mRNA expression level of CDK4 gene: decreased
[9]
  mRNA expression level of MET gene: decreased
CCNE2 (Cyclin E2) gene
  mRNA expression level of CCNE2 gene: decreased
[10]
  mRNA expression level of SFRS2 gene: decreased
HCT116 cell [11]
  gene expression patterns (microarray): a group of genes whose expression was decreased
[13]; [14]
  mRNA expression level of MTB gene: decreased
